Literature values, collected in patent publication EP1464334A1 (priority 2003, dated 2004).
Structures can show the parent of a compound that is named as a salt. Where two headings read alike, the source gives them in different places.

What was measured:
[1] = mouse, in vivo, po
[2] = rabbit, in vivo, po

For `CCN(CC)CCCC(C)Nc1c2ccc(Cl)cc2nc2ccc(OC)cc12` (centres unmarked) [Chinacrinhydrochlorid], the LD50-Dosis [1] is listed as 557 mg/kg and the LD50-Dosis [2] is listed as 433 mg/kg.
